Values quoted from earlier work as cited in patent publication US11225464B2, “Compositions and methods for the treatment of gastrointestinal polyps” (CELLIX BIO PRIVATE LIMITED, priority 2016, dated 2022).

Legend:
[1] = long-term users
colorectal adenomas = details: FAP patients; long-term use; colon as well as rectum of patients after colectomy
duodenal adenomas = details: FAP patients

Structure (SMILES) | cardiovascular effects [1] | reduction of the number of colorectal adenomas (colorectal adenomas) [%] | effect on duodenal polyposis / number of duodenal adenomas (duodenal adenomas)
CS(=O)(=O)c1ccc(C2=C(c3ccccc3)C(=O)OC2)cc1 [rofecoxib] | cardiovascular effects (myocardial infarction or stroke) have been described | – | –
CC1=C(CC(=O)O)c2cc(F)ccc2/C1=C\c1ccc([S+](C)[O-])cc1 (stereo not drawn) [sulindac] | – | > 50 | not in duodenal polyposis
